Measurements published in patent publication US9034831B2, “Pharmaceutical composition for a hepatitis C viral protease inhibitor” (Boehringer Ingelheim International GmbH, priority 2009, dated 2015).
Structures can show the parent of a compound that is named as a salt.

Assay: Solubility of drug substance in the compositions as a function of temperature
Assay type: physicochemical
Conditions: in the compositions of the invention

C=C[C@@H]1C[C@]1(NC(=O)[C@@H]1C[C@@H](Oc2cc(-c3csc(NC(=O)C(C)C)n3)nc3c(Br)c(OC)ccc23)CN1C(=O)[C@@H](NC(=O)OC1CCCC1)C(C)(C)C)C(=O)O [Compound (1) sodium salt]
solubility (temperature dependence): increases as the temperature decreases
